Results: the OPERA property sets (Mansouri et al. 2018)

Conditions: for log10 BCF / log10 biotransformation half-life (days): fish

| Structure (SMILES) | boiling point | log10 vapour pressure (mmHg) | melting point | other results |
| --- | --- | --- | --- | --- |
| C=CC(N)=O | 193 °C | -2.15 | 84.5 °C | log10 Koc (L/kg): 1.7; ready biodegradability: readily biodegradable |
| CC(CO)CO | 195 °C | -1.68 | -91 °C |  |
| NCCC(=O)N[C@@H](Cc1c[nH]cn1)C(=O)O |  |  | 260 °C |  |
| Cc1ccc(/N=N/c2c(O)ccc3ccccc23)c(C)c1 |  |  | 166 °C |  |
| NC(=O)NC1NC(=O)NC1=O (stereo unspecified) |  |  | 238 °C |  |
| O=C1CCCC(=O)N1 |  |  | 156 °C |  |
| CCCCCCOC(=O)CC | 190 °C |  | -57.5 °C |  |
| CCc1ccc(CC)c(CC)c1 | 218 °C |  |  |  |
| C=C(C)[C@@H]1CC[C@]2(CO)CC[C@]3(C)[C@H](CC[C@@H]4[C@@]5(C)CC[C@H](O)C(C)(C)[C@@H]5CC[C@]43C)[C@@H]12 |  |  | 250 °C |  |
| N#Cc1c[nH]cc1-c1cccc2c1OC(F)(F)O2 |  | -8.53 | 200 °C |  |
| Cc1cnc(C)[nH]1 | 267 °C |  | 92 °C |  |
| CNC(=O)Oc1ccccc1OC(C)C |  | -5.01 | 87 °C | log10 Koc (L/kg): 1.67; ready biodegradability: readily biodegradable |
| C[Si](C)(Cl)Cl | 70.3 °C | 2.16 |  |  |
| COC(=O)c1ccc(C)cc1 | 220 °C |  | 33.2 °C |  |
| Cc1ccc(N(CC2=NCCN2)c2cccc(O)c2)cc1 |  |  | 174 °C |  |
| O=C(CCl)C(Cl)(Cl)Cl | 183 °C |  | 65 °C |  |
| O=[N+]([O-])c1c(Cl)c(Cl)c(Cl)c(Cl)c1Cl | 328 °C | -4.3 | 144 °C | log10 Koc (L/kg): 3.98; ready biodegradability: not readily biodegradable; log10 BCF: 2.74; log10 biotransformation half-life (days): -0.17 |
| CNC(=O)Oc1ccccc1C(C)C |  | -4.68 | 94 °C | ready biodegradability: not readily biodegradable; log10 BCF: 0.95; log10 biotransformation half-life (days): -1.25 |
| C[C@@H]1Cc2c(Cl)cc(C(=O)N[C@@H](Cc3ccccc3)C(=O)O)c(O)c2C(=O)O1 |  |  | 169 °C |  |
| Nc1ccc(-c2ccccc2N)cc1 | 363 °C |  | 54.5 °C |  |

| Structure (SMILES) | boiling point | log10 vapour pressure (mmHg) | melting point | other results |
| --- | --- | --- | --- | --- |
| FC(F)=C(F)C(F)=C(F)F | 6 °C |  | -132 °C |  |
| CCOc1ccc2ccccc2c1 | 282 °C |  | 37.5 °C |  |
| CN(C)c1cccc(O)c1 | 266 °C |  | 86 °C |  |
| CCc1ccncc1 | 168 °C | 0.355 | -90.5 °C | log10 Henry constant (atm·m³/mol): -5.07 |
| Ic1cccs1 | 181 °C | 0.906 | -40 °C |  |
| c1ccc2c(c1)CCc1ccccc1N2C1CN2CCC1CC2 (stereo unspecified) |  |  | 150 °C |  |
| c1ccc(-c2ccccc2)cc1 | 256 °C | -2.05 |  | log10 Henry constant (atm·m³/mol): -3.51; log10 Koa: 6.15; log10 Koc (L/kg): 3.27; log10 biodegradation half-life (days): 1.49; ready biodegradability: readily biodegradable; log10 BCF: 2.64 |
| O=C(Cl)c1cc([N+](=O)[O-])cc([N+](=O)[O-])c1 |  |  | 74 °C |  |
| CC12CCC(CC1)C(C)(C)O2 | 176 °C | 0.279 | 1.5 °C |  |
| NCCc1ccc(O)cc1 |  |  | 164 °C |  |
| CC(C)=NN=C(C)C | 133 °C |  | -12.5 °C |  |
| CCc1cccs1 | 134 °C | 1.05 |  |  |
| Cc1cc(C)c2ccccc2n1 | 265 °C | -2.1 |  |  |
| Cc1c2ccccc2cc2ccccc12 |  | -4.4 | 81.5 °C | log10 Koc (L/kg): 4.81; log10 biodegradation half-life (days): 2.42; log10 biotransformation half-life (days): 0.23 |
| CC(C)C(C(=O)OC(C#N)c1cccc(Oc2ccc(Br)cc2)c1)c1ccc(OC(F)F)cc1 (stereo unspecified) |  | -8.92 |  |  |
| O=[N+]([O-])c1ccco1 |  |  | 30 °C |  |
| COc1cc(O)c2c(c1)OC(c1ccc(O)cc1)CC2=O (stereo unspecified) |  |  | 152 °C |  |
| CCCCOC(=O)CC#N | 231 °C |  |  |  |
| C=CCc1cc2c(c(OC)c1OC)OCO2 | 285 °C |  | 29.5 °C |  |
| CC1Cc2ccccc2CC1C (stereo unspecified) |  |  | -5 °C |  |
